Results published in US9056874B2, “Complement pathway modulators and uses thereof” (NOVARTIS AG, priority 2012, dated 2015).

The molecules below were run against factor B (Homo sapiens, UniProt P00751) (assay: factor B inhibition assay of Biological Example 1). Conditions: IC50 (nM), assay of Biological Example 1 (Table 1).
Format: biochemical
Design: CVF-Bb complex prepared from purified cobra venom factor (1 μM), recombinant human complement factor B; made in house; host or cells: drosophila cells (factor B); E. coli (factor D used to form the complex)

Chain of factor B (P00751 260-764 limits assumed): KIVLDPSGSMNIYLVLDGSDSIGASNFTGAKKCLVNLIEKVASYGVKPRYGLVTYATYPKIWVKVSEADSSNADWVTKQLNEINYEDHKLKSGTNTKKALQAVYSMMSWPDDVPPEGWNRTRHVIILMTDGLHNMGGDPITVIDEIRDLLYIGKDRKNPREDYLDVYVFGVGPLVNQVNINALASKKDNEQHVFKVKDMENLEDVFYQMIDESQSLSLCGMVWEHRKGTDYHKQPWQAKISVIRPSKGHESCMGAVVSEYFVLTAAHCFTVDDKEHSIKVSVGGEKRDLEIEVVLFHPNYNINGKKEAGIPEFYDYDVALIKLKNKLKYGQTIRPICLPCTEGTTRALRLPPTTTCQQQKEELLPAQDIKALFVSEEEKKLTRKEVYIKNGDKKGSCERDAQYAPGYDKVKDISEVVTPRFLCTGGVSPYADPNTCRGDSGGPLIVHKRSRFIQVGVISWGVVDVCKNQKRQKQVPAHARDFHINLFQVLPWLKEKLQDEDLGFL
Chain of factor B (Q91132 23-649 partner limits assumed): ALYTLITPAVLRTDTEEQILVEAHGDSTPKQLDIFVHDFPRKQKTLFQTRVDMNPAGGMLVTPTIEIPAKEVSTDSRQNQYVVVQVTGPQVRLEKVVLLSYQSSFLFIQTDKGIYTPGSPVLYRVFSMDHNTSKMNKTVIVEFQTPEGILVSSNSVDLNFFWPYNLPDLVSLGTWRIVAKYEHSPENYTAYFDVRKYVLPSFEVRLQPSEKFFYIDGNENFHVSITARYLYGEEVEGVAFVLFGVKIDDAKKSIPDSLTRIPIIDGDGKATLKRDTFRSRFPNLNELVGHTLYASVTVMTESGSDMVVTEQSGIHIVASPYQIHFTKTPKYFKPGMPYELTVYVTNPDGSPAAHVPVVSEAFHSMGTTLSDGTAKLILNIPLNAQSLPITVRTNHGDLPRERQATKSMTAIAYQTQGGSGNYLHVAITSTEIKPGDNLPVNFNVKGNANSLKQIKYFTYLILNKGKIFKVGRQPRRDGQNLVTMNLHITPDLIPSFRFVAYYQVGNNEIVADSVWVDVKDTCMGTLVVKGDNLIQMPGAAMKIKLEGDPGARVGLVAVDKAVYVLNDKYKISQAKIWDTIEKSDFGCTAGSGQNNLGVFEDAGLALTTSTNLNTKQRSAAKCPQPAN
Chain of factor B (Q91132 733-984 partner limits assumed): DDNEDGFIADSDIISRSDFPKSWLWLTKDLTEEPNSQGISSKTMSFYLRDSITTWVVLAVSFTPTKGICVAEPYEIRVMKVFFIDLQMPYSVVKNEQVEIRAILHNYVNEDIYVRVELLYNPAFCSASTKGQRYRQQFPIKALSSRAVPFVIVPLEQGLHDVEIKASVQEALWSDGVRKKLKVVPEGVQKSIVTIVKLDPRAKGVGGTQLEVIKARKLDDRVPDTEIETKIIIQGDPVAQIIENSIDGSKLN
Chain of factor B (Q91132 1264-1642 partner limits assumed): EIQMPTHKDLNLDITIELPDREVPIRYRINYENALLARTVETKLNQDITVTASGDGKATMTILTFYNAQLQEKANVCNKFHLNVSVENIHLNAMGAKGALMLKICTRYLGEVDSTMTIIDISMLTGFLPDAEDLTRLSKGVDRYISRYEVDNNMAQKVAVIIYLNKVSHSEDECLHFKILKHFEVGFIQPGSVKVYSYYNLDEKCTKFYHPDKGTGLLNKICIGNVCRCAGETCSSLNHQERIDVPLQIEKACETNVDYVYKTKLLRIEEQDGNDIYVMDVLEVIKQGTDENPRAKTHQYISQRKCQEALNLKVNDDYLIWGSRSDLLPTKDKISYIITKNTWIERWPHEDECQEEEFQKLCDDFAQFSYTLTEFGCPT

Structure (SMILES)	IC50
COc1cc(C)c2[nH]cc(Cl)c2c1C(C)(O)c1nc2cc(C#N)ccc2[nH]1 (single isomer, unassigned) [Example 29-B, (+) or (−)-2-(1-(3-chloro-5-methoxy-7-methyl-1H-indol-4-yl)-1-hydroxyethyl)-1H-benzo[d]imidazole-5-carbonitrile]	2570 nM
Cc1cc(OC(F)F)c(C(O)c2nc3cc(C#N)ccc3[nH]2)c2cc[nH]c12 (single isomer, unassigned; (+)) [3-B b) (+), (+)-2-((5-(difluoromethoxy)-7-methyl-1H-indol-4-yl)(hydroxy)methyl)-1H-benzo[d]imidazole-5-carbonitrile]	820 nM
Cc1cc(OC(F)F)c(C(C)(N)c2nc3cc(C#N)ccc3[nH]2)c2cc[nH]c12 (single isomer, unassigned; (+)) [5-E b) (+), (+)-2-(1-amino-1-(5-(difluoromethoxy)-7-methyl-1H-indol-4-yl)ethyl)-1H-benzo[d]imidazole-5-carbonitrile]	420 nM
COC(C)(c1nc2cc(C#N)ccc2[nH]1)c1c(OC(F)F)cc(C)c2[nH]ccc12 (single isomer, unassigned; (+)) [8-B b) (+), (+)-2-(1-(5-(difluoromethoxy)-7-methyl-1H-indol-4-yl)-1-methoxyethyl)-1H-benzo[d]imidazole-5-carbonitrile]	10 nM
Cc1cc(S(C)(=O)=O)c(C(C)(N)c2nc3cc(C#N)ccc3[nH]2)c2cc[nH]c12 (single isomer, unassigned; (+)) [13-E b) (+), (+)-2-(1-Amino-1-(7-methyl-5-(methylsulfonyl)-1H-indol-4-yl)ethyl)-1H-benzo[d]imidazole-5-carbonitrile]	250 nM
Cc1cc(S(C)(=O)=O)c(C(O)(c2nc3cc(C#N)ccc3[nH]2)C(F)(F)F)c2cc[nH]c12 (single isomer, unassigned; (+)) [14-D b) (+), (+)-2-(2,2,2-trifluoro-1-hydroxy-1-(7-methyl-5-(methylsulfonyl)-1H-indol-4-yl)ethyl)-1H-benzo[d]imidazole-5-carbonitrile]	8410 nM
COC(c1nc2cc(C#N)ccc2[nH]1)(c1c(S(C)(=O)=O)cc(C)c2[nH]ccc12)C(F)(F)F (single isomer, unassigned; (+)) [15-D b) (+), (+)-2-(2,2,2-trifluoro-1-methoxy-1-(7-methyl-5-(methylsulfonyl)-1H-indol-4-yl)ethyl)-1H-benzo[d]imidazole-5-carbonitrile]	32700 nM
CNC(c1nc2cc(C#N)ccc2[nH]1)(c1c(S(C)(=O)=O)cc(C)c2[nH]ccc12)C(F)(F)F (single isomer, unassigned; (+)) [16-B b) (+), (+)-2-(2,2,2-trifluoro-1-(7-methyl-5-(methylsulfonyl)-1H-indol-4-yl)-1-(methylamino)ethyl)-1H-benzo[d]imidazole-5-carbonitrile]	4740 nM
Cc1cc(S(C)(=O)=O)c(C(N)(c2nc3cc(C#N)ccc3[nH]2)C(F)(F)F)c2cc[nH]c12 (single isomer, unassigned; (+)) [17-B b) (+), (+)-2-(1-amino-2,2,2-trifluoro-1-(7-methyl-5-(methylsulfonyl)-1H-indol-4-yl)ethyl)-1H-benzo[d]imidazole-5-carbonitrile]	6860 nM
COc1cc(C)c2[nH]ccc2c1C(O)c1nc2cc(C#N)ccc2[nH]1 (single isomer, unassigned; (+)) [24-B b) (+), (+)-2-(hydroxy(5-methoxy-7-methyl-1H-indol-4-yl)methyl)-1H-benzo[d]imidazole-5-carbonitrile]	370 nM
CCOc1cc(C)c2[nH]ccc2c1C(O)c1nc2cc(C#N)ccc2[nH]1 (single isomer, unassigned; (+)) [24-C b) (+), (+)-2-((5-ethoxy-7-methyl-1H-indol-4-yl)(hydroxy)methyl)-1H-benzo[d]imidazole-5-carbonitrile]	6050 nM
Cc1cc(OC(C)C)c(C(O)c2nc3cc(C#N)ccc3[nH]2)c2cc[nH]c12 (single isomer, unassigned; (+)) [24-D b) (+), (+)-2-(hydroxy(5-isopropoxy-7-methyl-1H-indol-4-yl)methyl)-1H-benzo[d]imidazole-5-carbonitrile]	1980 nM
CCOc1cc(C)c2[nH]ccc2c1C(C)(O)c1nc2cc(C#N)ccc2[nH]1 (single isomer, unassigned; (+)) [26-D b) (+), (+)-2-(1-(5-ethoxy-7-methyl-1H-indol-4-yl)-1-hydroxyethyl)-1H-benzo[d]imidazole-5-carbonitrile]	360 nM
CCC(O)(c1nc2cc(C#N)ccc2[nH]1)c1c(OC(C)C)cc(C)c2[nH]ccc12 (single isomer, unassigned; (+)) [26-F b) (+), (+)-2-(1-hydroxy-1-(5-isopropoxy-7-methyl-1H-indol-4-yl)propyl)-1H-benzo[d]imidazole-5-carbonitrile]	230 nM
Cc1cc(OCC2CC2)c(C(C)(O)c2nc3cc(C#N)ccc3[nH]2)c2cc[nH]c12 (single isomer, unassigned; (+)) [26-G b) (+), (+)-2-(1-(5-(cyclopropylmethoxy)-7-methyl-1H-indol-4-yl)-1-hydroxyethyl)-1H-benzo[d]imidazole-5-carbonitrile]	4950 nM
COc1cc(C)c2[nH]ccc2c1C(C)(OC)c1nc2cc(C#N)ccc2[nH]1 (single isomer, unassigned; (+)) [27-B b) (+), (+)-2-(1-methoxy-1-(5-methoxy-7-methyl-1H-indol-4-yl)ethyl)-1H-benzo[d]imidazole-5-carbonitrile]	60 nM
[2H]C([2H])([2H])C(OC)(c1nc2cc(C#N)ccc2[nH]1)c1c(OC)cc(C)c2[nH]ccc12 (single isomer, unassigned; (+)) [27-E b) (+), (+)-2-((^2H3)methyl(methoxy)(5-methoxy-7-methyl-1H-indol-4-yl)methyl)-1H-benzo[d]imidazole-5-carbonitrile]	90 nM
COc1cc(C)c2[nH]cc(Cl)c2c1C(O)c1nc2cc(C#N)ccc2[nH]1 (single isomer, unassigned; (+)) [28-C b) (+), (+)-2-((3-chloro-5-methoxy-7-methyl-1H-indol-4-yl)(hydroxy)methyl)-1H-benzo[d]imidazole-5-carbonitrile]	53900 nM
COc1cc(C)c2[nH]ccc2c1C(O)(c1nc2cc(C#N)ccc2[nH]1)C(F)(F)F (single isomer, unassigned; (+)) [33-B b) (+), (+)-2-(2,2,2-trifluoro-1-hydroxy-1-(5-methoxy-7-methyl-1H-indol-4-yl)ethyl)-1H-benzo[d]imidazole-5-carbonitrile]	430 nM
COc1cc(C)c2[nH]ccc2c1C(OC)(c1nc2cc(C#N)ccc2[nH]1)C(F)(F)F (single isomer, unassigned; (+)) [34-B b) (+), (+)-2-(2,2,2-trifluoro-1-methoxy-1-(5-methoxy-7-methyl-1H-indol-4-yl)ethyl)-1H-benzo[d]imidazole-5-carbonitrile]	50 nM
COc1cc(C)c2[nH]ccc2c1C(OCC(=O)O)(c1nc2cc(C#N)ccc2[nH]1)C(F)(F)F (single isomer, unassigned; (+)) [35-C (+), (+)-2-(1-(5-cyano-1H-benzo[d]imidazol-2-yl)-2,2,2-trifluoro-1-(5-methoxy-7-methyl-1H-indol-4-yl)ethoxy)acetic acid]	4870 nM
CNC(c1nc2cc(C#N)ccc2[nH]1)(c1c(OC)cc(C)c2[nH]ccc12)C(F)(F)F (single isomer, unassigned; (+)) [38-B b) (+), (+)-2-(2,2,2-trifluoro-1-(5-methoxy-7-methyl-1H-indol-4-yl)-1-(methylamino)ethyl)-1H-benzo[d]imidazole-5-carbonitrile]	140 nM
COc1cc(C)c2[nH]ccc2c1C(C)(N)c1nc2cc(C#N)ccc2[nH]1 (single isomer, unassigned; (+)) [41-B b) (+), (+)-2-(1-amino-1-(5-methoxy-7-methyl-1H-indol-4-yl)ethyl)-1H-benzo[d]imidazole-5-carbonitrile]	190 nM
CNC(C)(c1nc2cc(C#N)ccc2[nH]1)c1c(OC)cc(C)c2[nH]ccc12 (single isomer, unassigned; (+)) [42-D b) (+), (+)-2-(1-(5-methoxy-7-methyl-1H-indol-4-yl)-1-(methylamino)ethyl)-1H-benzo[d]imidazole-5-carbonitrile]	130 nM
Cc1cc(C)c2[nH]ccc2c1C(O)c1nc2cc(C#N)ccc2[nH]1 (single isomer, unassigned; (+)) [64-C b) (+), (+)-2-((5,7-dimethyl-1H-indol-4-yl)(hydroxy)methyl)benzo[d]imidazole-5-carbonitrile]	340 nM
Cc1cc(CO)c(C(O)c2nc3cc(C#N)ccc3[nH]2)c2cc[nH]c12 (single isomer, unassigned; (+)) [65-D b) (+), (+)-2-(hydroxy(5-(hydroxymethyl)-7-methyl-1H-indol-4-yl)methyl)-1H-benzo[d]imidazole-5-carbonitrile]	6200 nM
CCOCc1cc(C)c2[nH]ccc2c1C(O)c1nc2cc(C#N)ccc2[nH]1 (single isomer, unassigned; (+)) [66-D b) (+), (+)-2-((5-(ethoxymethyl)-7-methyl-1H-indol-4-yl)(hydroxy)methyl)-1H-benzo[d]imidazole-5-carbonitrile]	30400 nM
CCc1cc(C)c2[nH]ccc2c1C(O)c1nc2cc(C#N)ccc2[nH]1 (single isomer, unassigned; (+)) [67-A b) (+), (+)-2-((5-ethyl-7-methyl-1H-indol-4-yl)(hydroxy)methyl)-1H-benzo[d]imidazole-5-carbonitrile]	1160 nM

Same assay, conditions: assay of Biological Example 1 (Table 1)

Structure (SMILES)	IC50
Cc1cc(OC(C)C)c(C(C)(O)c2nc3cc(C#N)ccc3[nH]2)c2cc[nH]c12 (single isomer, unassigned; (+)) [26-E b) (+), (+)-2-(1-hydroxy-1-(5-isopropoxy-7-methyl-1H-indol-4-yl)ethyl)-1H-benzo[d]imidazole-5-carbonitrile]	170 nM
